Structures can show the parent of a compound that is named as a salt.
How the values were obtained:
Z-138 = test: MTT cytotoxicity assay; format: cell-based; details: Homo sapiens, 48 h of treatment
Method: (§1) The cytotoxic activity of the compounds was determined by MTT reduction assay as described. Compounds were diluted in Milli-Q water to obtain 1 mmol/L stock solutions. Appropriate aliquots of these solutions were diluted in the corresponding cell culture medium to obtain the final working concentrations. Aliquots of 5000 1BR3G cells, 6000 MCF-7, 6000 PC-3 cells, 10 000 CAPAN-1 cells, 4000 MCF 10A cells, 4000 HMLE cells or 4000 CCD-18Co cells were seeded in 96-well plates, 24 h prior to the treatments. Hematological cell lines were seeded at 400 000 cells/mL. Cells were treated with the corresponding compound at concentrations ranging from 0 to 100 μmol/L for 48 h. Three replicates for each compound were used. The IC50 was established for each compound by standard non-linear regression and curve fitting using GraphPad Prism (Graph Pad software Inc., La Jolla, CA, USA).

1BR3G = test: MTT cytotoxicity assay; format: cell-based; details: Homo sapiens, 48 h of treatment, non malignant cells
Method: as §1

PC-3 = test: MTT cytotoxicity assay; format: cell-based; details: Homo sapiens, 48 h of treatment
Method: as §1

HMLE = test: MTT cytotoxicity assay; format: cell-based; details: Homo sapiens, 48 h of treatment, non malignant cells
Method: as §1

JURKAT = test: MTT cytotoxicity assay; format: cell-based; details: Homo sapiens, 48 h of treatment
Method: as §1

MCF-10A = test: MTT cytotoxicity assay; format: cell-based; details: Homo sapiens, 48 h of treatment, non malignant cells
Method: as §1

CCD-18Co = test: MTT cytotoxicity assay; format: cell-based; details: Homo sapiens, 48 h of treatment, non malignant cells
Method: as §1

Hemolytic assay = format: cell-based; details: human, erythrocyte suspension of fresh human blood (5% vol/vol)
Method: The hemolytic activity of the compounds at 100 μmol/L was evaluated by determining hemoglobin release from erythrocyte suspensions of fresh human blood (5% vol/vol) as described.

MCF-7 cells [1] = test: MTT cytotoxicity assay; format: cell-based, human; details: MTT, 48 h of compound exposure
Method: as §1

CAPAN-1 cells [2] = test: MTT cytotoxicity assay; format: cell-based, human; details: MTT, 48 h of compound exposure
Method: as §1

MCF-7 cells [3] = test: Cellular labile iron pool with calcein-AM; format: cell-based, human; details: MCF-7
[4] = test system: CS-like HMLER-shEcad cells; test: MTT cytotoxicity assay in cancer stem-like cells; format: cell-based, human; details: 48 h
Method: as §1
(§2) Fig 2 Cell viability assay. (A) Cytotoxic activity of compounds 1, 2, and 5 against cancer cells. The indicated cell lines were treated for 48 h with ligands (10 μmol/L) and cell viability was measured with the MTT assay. Data represents the percentage of viable cells relative to untreated cells (control). (B) Cytotoxicity of doxorubicin and compounds 1, 2 and 5 against CS-like cells. CS-like HMLER-shEcad cells and non-CS-like HMLER isogenic parental cells were treated for 48 h with graded concentrations of doxorubicin, 1, 2 and 5. Cell viability was measured with the MTT assay. For each treatment, the percentage of viable cells relative to untreated cells is indicated. Data represents the mean±SD of 3 independent experiments performed in triplicate.

HMLER cells = test: MTT cytotoxicity assay in non-CS-like parental cells; format: cell-based; details: Homo sapiens, 48 h
Method: as §1, §2

MCF-7 and CAPAN-1 cells = test: MTT cell viability with modulators (QVD-Oph, FeCl2); format: cell-based, human; details: FeCl2 alone at 1, 10 or 100 μmol/L, 48 h
Method: as §1
Fig 4 Induction of caspase activity. (A) The indicated cell lines were treated for 48 h with compounds 1, 2 and 5 (10 μmol/L) and caspase 3/7 activity was measured as indicated in Materials and Methods. Bar charts show the fold increase in caspase activity relative to untreated (control) and represent the mean±SD from three independent experiments performed in triplicate. (B) MCF-7 and CAPAN-1 cells were treated for 48 h with the ligands (10 μM) in the absence (-) or presence (+) of the pan-caspase inhibitor QVD-Oph (20 μM) and cell viability was measured with the MTT assay. […] Data represents the mean ± SD of 3 independent experiments performed in triplicate. The differences between absence and presence of QVD-OPh treatment were statistically significant at * p<0.05, **p<0.01 and ***p<0.001.
Fig 9 Effects of iron on 1, 2 and 5 activity. (A) Effect of 2 h FeCl2 pre-incubation (FeCl2 p) (dotted line) or co-incubation (FeCl2 c) (dashed line) at 1, 10 or 100 μmol/L on the cytotoxicity of 2 (5 μmol/L) in MCF-7 and CAPAN-1 cells. FeCl2 alone was included as a control (solid line). Cell viability was determined after 48 h of treatment by the MTT assay. (B) Effect of FeCl2 pre-incubation or co-incubation (100 μmol/L) on the cytotoxicity of 2 (5 μmol/L), 1 and 5 (10 μmol/L). Cells treated with the ligands alone were included as a reference (control). (C) ROS induction in CAPAN-1 cells after 24 h treatment with 2 (10 μmol/L) alone, together with FeCl2 or after FeCl2 pre-incubation (at 100 μmol/L). Results are presented as a percentage of untreated cells and represent mean±SD of 3 independent experiments. *p < 0.05 versus control cells.

CAPAN-1 cells [5] = test: Cellular labile iron pool with calcein-AM; format: cell-based, human; details: CAPAN-1, 100 μmol/L, 24 h
Method: The cellular labile iron pool was determined with calcein-AM. CAPAN-1 cells (125 000 cells/ well) were seeded in 24-well plates and incubated for 24 h. Then, cells were treated for 24 h with 10 μmol/L of compound 1, 2 or 5 at 37°C. In some experiments, cells were incubated for 2 h with 100 μmol/L of DFO or 100 μmol/L FeCl2. Cells exposed to the vehicle alone were used as a control. After treatments, cells were washed with PBS and incubated with calcein-AM (0.25 μmol/L) for 30 min at 37°C in the dark. Subsequently, cells were washed and collected with trypsin and the geometric mean fluorescence intensity of 10 000 cells was determined by flow cytometry as described.

SMILES	IC50 (Z-138)	IC50 (1BR3G)	IC50 (PC-3)	IC50 (HMLE)	IC50 (JURKAT)	IC50 (MCF-10A)	IC50 (CCD-18Co)	hemolysis at 100 µM (Hemolytic assay)	IC50 (MCF-7 cells [1]; Homo sapiens, MCF7)	IC50 (CAPAN-1 cells [2]; Homo sapiens, CAPAN-1)	also measured
CN1CCN(C)CCN(Cc2ccccn2)CC1 [Compound 4]	23.1 ± 1.8 µM	78 ± 8.5 µM	> 100 µM	47.7 ± 4.5 µM	> 100 µM	> 100 µM	> 100 µM	0%	88.5 ± 0.7 µM	32 ± 10.4 µM	
CC(=O)N(O)CCCCCNC(=O)CCC(=O)N(O)CCCCCNC(=O)CCC(=O)N(O)CCCCCN [DFO, deferoxaminemesylate salt, reference compound]											calcein fluorescence increase after DFO incubation (MCF-7 cells [3]): 132.1±16.5%
COc1cccc2c1C(=O)c1c(O)c3c(c(O)c1C2=O)C[C@@](O)(C(=O)CO)C[C@@H]3O[C@H]1C[C@H](N)[C@H](O)[C@H](C)O1 [doxorubicin, reference compound]											fold increase in IC50, HMLER-shECad vs HMLER [4]: ~ 3 fold; IC50 ([4]; Homo sapiens): 0.3 ± 0.02 µM; IC50 (HMLER cells): 0.1 ± 0.02 µM
CN(Cc1ccccn1)[C@H]1CCCC[C@@H]1N(C)Cc1ccccn1 [Compound 3]	16.5 ± 1.4 µM	45 ± 1 µM	35 ± 4.2 µM	32.5 ± 3.8 µM	> 100 µM	39.7 ± 2.9 µM	> 100 µM	0%	40.6 ± 2.5 µM	27.7 ± 2.9 µM	
[Cl][Fe][Cl] [FeCl2, reference compound]											effect on cell viability (MCF-7 and CAPAN-1 cells): did not affect the viability; calcein fluorescence intensity, % of control cells (CAPAN-1 cells [5]): 74.2±15.5%
N.N.[Cl][Pt][Cl] [Cisplatin, reference compound]											IC50 (MCF-7 cells [1]): 2.4 ± 0.4 µM; IC50 (CAPAN-1 cells [2]): 2.2 ± 0.3 µM

Source: publication PMC4569415, “Pro-Oxidant Activity of Amine-Pyridine-Based Iron Complexes Efficiently Kills Cancer and Cancer Stem-Like Cells” (PLoS ONE, 2015)
